The assay can be described thus: Inhibition of human recombinant ICAM-1 adhesion into human Jurkat cells after 1 hr.

We go through one compound from BindingDB's records for doi:10.1021/ml2002482 (2012).

What is called IC50 is the point on the concentration scale where inhibition reaches its midpoint.

As to `CS(=O)(=O)c1cccc(C[C@H](NC(=O)c2c(Cl)cc3c(c2Cl)CCN(C(=O)c2ccc4ccoc4c2)C3)C(=O)O)c1`, the IC50 was determined as 2.98 nM.
